# Data reported in ChEMBL document CHEMBL6087472, “Development and Discovery of a Selective Degrader of Casein Kinases 1 δ/ε” (J Med Chem, 2025).
# Activity calls are given as the source filed them. The calls are words filed in the database; no cut-off is given here.
# Columns and labels:
# [1] = target: T1, von Hippel-Lindau disease tumor suppressor/Casein kinase I isoform delta (Homo sapiens, UniProt P48730+P40337); assay: PROTAC activity at VHL/HiBit fused CK1 delta in human MV4-11 cells assessed as fold change at 0.63 uM measured after 6 hrs in presence of 10 uM of MU1742 by Nano-Glo HiBit assay; type: cell-based
# [2] = target: T2, von Hippel-Lindau disease tumor suppressor/Casein kinase I isoform alpha (Homo sapiens) (UniProt P48729+P40337); assay: PROTAC activity at VHL/CK1 alpha in human U87 cells assessed as induction of degradation of CK1 alpha at 1 uM measured after 6 hrs; type: cell-based
# [3] = target: T3, von Hippel-Lindau disease tumor suppressor/Casein kinase I isoform epsilon (Homo sapiens) (UniProt P49674+P40337); assay: PROTAC activity at VHL/CK1 epsilon in human MV4-11 cells assessed as degradation of CK1 epsilon at 5 to 10 uM incubated for 6 hrs by Western blot analysis; type: cell-based; conditions: dose 5-10 µM
# [4] = target: T1, von Hippel-Lindau disease tumor suppressor/Casein kinase I isoform delta; assay: PROTAC activity at VHL/HiBit fused CK1 delta in human MV4-11 cells assessed as fold change at 0.63 uM measured after 6 hrs in presence of 1 uM of MU1742 by Nano-Glo HiBit assay; type: cell-based
# [5] = target: T1, von Hippel-Lindau disease tumor suppressor/Casein kinase I isoform delta; assay: PROTAC activity at VHL/CK1 delta in HEK293 cells assessed as induction of degradation of CK1 delta at 3 uM measured after 1 hrs by Western blot analysis; type: cell-based
# [6] = test system: MV4-11; assay: Cytotoxicity in human MV4-11 cells at 10 uM measured after 72 hrs by alamar blue assay; type: functional, cell-based
# [7] = target: T3, von Hippel-Lindau disease tumor suppressor/Casein kinase I isoform epsilon (Homo sapiens); assay: PROTAC activity at VHL/CK1 epsilon in human U87 cells assessed as induction of degradation of CK1 epsilon by measuring maximum efficacy at 1 uM measured after 6 hrs relative to control; type: cell-based
# [8] = target: T1, von Hippel-Lindau disease tumor suppressor/Casein kinase I isoform delta; assay: PROTAC activity at VHL/CK1 delta in HEK293 cells assessed as induction of degradation of CK1 delta measured after 6 hrs by Western blot analysis; type: cell-based; conditions: dose 0.01-30 µM
# [9] = target: T3, von Hippel-Lindau disease tumor suppressor/Casein kinase I isoform epsilon (Homo sapiens); assay: PROTAC activity at VHL/CK1 epsilon in HEK293 cells assessed as induction of degradation of CK1 epsilon at 3 uM measured after 6 hrs by Western blot analysis relative to control; type: cell-based
# [10] = target: T1, von Hippel-Lindau disease tumor suppressor/Casein kinase I isoform delta; assay: PROTAC activity at VHL/CK1 delta in human HEK293 cells at 0.625 to 10 uM in presence of MU1742 by Western blot analysis; type: cell-based; conditions: dose 0.625-10 µM
# [11] = target: Casein kinase I isoform delta (Homo sapiens) (UniProt P48730); assay: Binding affinity to […] in human HEK293 cells assessed as target engagement at >3 uM; type: cell-based
# [12] = target: T1, von Hippel-Lindau disease tumor suppressor/Casein kinase I isoform delta; assay: PROTAC activity at VHL/HiBit fused CK1 delta in human MV4-11 cells assessed as fold change at 0.63 uM measured after 6 hrs by Nano-Glo HiBit assay; type: cell-based
# [13] = target: T1, von Hippel-Lindau disease tumor suppressor/Casein kinase I isoform delta; assay: PROTAC activity at VHL/CK1 delta in human U87 cells assessed as induction of degradation of CK1 delta at 1 uM measured after 6 hrs; type: cell-based
# [14] = target: T2, von Hippel-Lindau disease tumor suppressor/Casein kinase I isoform alpha (Homo sapiens); assay: PROTAC activity at VHL/CK1 alpha in human MDA-MB-231 cells assessed as induction of degradation of CK1 alpha at 1 uM measured after 6 hrs; type: cell-based
# [15] = target: T2, von Hippel-Lindau disease tumor suppressor/Casein kinase I isoform alpha (Homo sapiens); assay: PROTAC activity at VHL/CK1 alpha in human MV4-11 cells assessed as degradation of CK1-alpha at 10 to 30 uM incubated for 6 hrs by Western blot analysis; type: cell-based; conditions: dose 10-30 µM
# [16] = target: T2, von Hippel-Lindau disease tumor suppressor/Casein kinase I isoform alpha (Homo sapiens); assay: PROTAC activity at VHL/CK1 alpha in HEK293 cells assessed as induction of degradation of CK1 alpha at 10 uM measured after 6 hrs by Western blot analysis relative to control; type: cell-based
# [17] = target: T1, von Hippel-Lindau disease tumor suppressor/Casein kinase I isoform delta; assay: PROTAC activity at VHL/Hibit-fused CK1 delta in human MV4-11 cells assessed as degradation of CK1-delta at 10 nM incubated for 6 hrs by Nano-Glo HiBiT assay; type: cell-based
# [18] = target: T1, von Hippel-Lindau disease tumor suppressor/Casein kinase I isoform delta; assay: PROTAC activity at VHL/CK1 delta in HEK293 cells assessed as induction of degradation of CK1 delta at 0.3 to 1.0 uM measured after 6 hrs by Western blot analysis relative to control; type: cell-based; conditions: dose 0.3-1 µM
# [19] = target: T1, von Hippel-Lindau disease tumor suppressor/Casein kinase I isoform delta; assay: PROTAC activity at VHL/HiBit fused CK1 delta in human MV4-11 cells assessed as fold change at 10 uM measured after 6 hrs in presence of MLN4924 by Nano-Glo HiBit assay; type: cell-based
# [20] = target: T1, von Hippel-Lindau disease tumor suppressor/Casein kinase I isoform delta; assay: PROTAC activity at VHL/CK1 delta in HEK293 cells assessed as induction of degradation of CK1 delta at upto 20 uM pretreated with LGK974 followed by compound addition and measured after 6 hrs by Western blot analysis; type: cell-based
# [21] = target: T3, von Hippel-Lindau disease tumor suppressor/Casein kinase I isoform epsilon (Homo sapiens); assay: PROTAC activity at VHL/CK1 epsilon in human HEK293 cells assessed as degradation of CK1 epsilon at 3 to 20 uM incubated overnight followed by compound washout and measured after 1 hr by Nano-Glo HiBiT assay; type: cell-based; conditions: dose 3-20 µM
# [22] = target: T2, von Hippel-Lindau disease tumor suppressor/Casein kinase I isoform alpha (Homo sapiens); assay: PROTAC activity at VHL/CK1 alpha in human MV4-11 cells assessed as induction of degradation of CK1 alpha measured after 1 hrs by HiBit assay; type: cell-based; conditions: dose 0.625-10 µM
# [23] = target: T1, von Hippel-Lindau disease tumor suppressor/Casein kinase I isoform delta; assay: PROTAC activity at VHL/CK1 delta in human MV4-11 cells assessed as degradation of CK1-delta at 5 to 10 uM incubated for 6 hrs by Western blot analysis; type: cell-based; conditions: dose 5-10 µM
# [24] = test system: HEK293; assay: Effect on VANGL2 phosphorylation in human HEK293 cells at 1 uM measured after 6 hrs by Western blot analysis; type: functional, cell-based
# [25] = target: T1, von Hippel-Lindau disease tumor suppressor/Casein kinase I isoform delta; assay: PROTAC activity at VHL/Hibit-fused CK1 delta in human MV4-11 cells assessed as degradation of CK1-delta at 2.5 uM measured upto 12 hrs in presence of cycloheximide by Nano-Glo HiBiT assay relative to control; type: cell-based
# [26] = target: T1, von Hippel-Lindau disease tumor suppressor/Casein kinase I isoform delta; assay: PROTAC activity at VHL/CK1 delta in HEK293 cells assessed as induction of degradation of CK1 delta at 3 uM measured after 6 hrs by Western blot analysis relative to control; type: cell-based
# [27] = target: T3, von Hippel-Lindau disease tumor suppressor/Casein kinase I isoform epsilon (Homo sapiens); assay: PROTAC activity at VHL/CK1 epsilon in HEK293 cells assessed as induction of degradation of CK1 epsilon at 0.3 to 1.0 uM measured after 6 hrs by Western blot analysis relative to control; type: cell-based; conditions: dose 0.3-1 µM
# [28] = target: T1, von Hippel-Lindau disease tumor suppressor/Casein kinase I isoform delta; assay: PROTAC activity at VHL/HiBit fused CK1 delta in human MV4-11 cells assessed as fold change at 2.5 uM measured after 6 hrs by Nano-Glo HiBit assay; type: cell-based
# [29] = target: T2, von Hippel-Lindau disease tumor suppressor/Casein kinase I isoform alpha (Homo sapiens); assay: PROTAC activity at VHL/Hibit-fused CK1 alpha in human MV4-11 cells assessed as degradation of CK1-alpha at 10 to 30 uM incubated for 6 hrs by Western blot analysis; type: cell-based; conditions: dose 10-30 µM
# [30] = target: T3, von Hippel-Lindau disease tumor suppressor/Casein kinase I isoform epsilon (Homo sapiens); assay: PROTAC activity at VHL/CK1 epsilon in human MDA-MB-231 cells assessed as induction of degradation of CK1 epsilon by measuring maximum efficacy at 1 uM measured after 6 hrs relative to control; type: cell-based
# [31] = target: T3, von Hippel-Lindau disease tumor suppressor/Casein kinase I isoform epsilon (Homo sapiens); assay: PROTAC activity at VHL/CK1 epsilon in HEK293 cells assessed as induction of degradation of CK1 epsilon measured after 6 hrs by Western blot analysis; type: cell-based; conditions: dose 0.01-30 µM
# T3 sequence (P40337 whole entry, looked up, the tested form may be a part, canonical isoform): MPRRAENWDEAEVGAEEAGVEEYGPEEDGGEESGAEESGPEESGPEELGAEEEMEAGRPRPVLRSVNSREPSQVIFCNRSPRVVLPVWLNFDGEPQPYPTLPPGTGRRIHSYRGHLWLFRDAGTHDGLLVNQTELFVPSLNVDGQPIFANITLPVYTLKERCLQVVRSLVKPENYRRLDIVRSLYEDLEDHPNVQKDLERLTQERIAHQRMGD
# T3 sequence (P49674 whole entry, looked up, the tested form may be a part, canonical isoform): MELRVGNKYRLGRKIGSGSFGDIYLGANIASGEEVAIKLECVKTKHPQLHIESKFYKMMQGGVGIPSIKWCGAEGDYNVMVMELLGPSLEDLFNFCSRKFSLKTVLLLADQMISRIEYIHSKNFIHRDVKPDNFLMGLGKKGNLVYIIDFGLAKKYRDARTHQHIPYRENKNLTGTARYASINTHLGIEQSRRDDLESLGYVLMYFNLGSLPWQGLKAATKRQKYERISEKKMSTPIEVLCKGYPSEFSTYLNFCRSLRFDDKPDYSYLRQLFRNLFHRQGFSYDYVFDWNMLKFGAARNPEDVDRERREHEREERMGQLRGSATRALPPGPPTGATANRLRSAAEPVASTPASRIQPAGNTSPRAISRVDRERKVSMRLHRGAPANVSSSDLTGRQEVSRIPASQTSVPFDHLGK
# T1 sequence (P40337 whole entry, looked up, the tested form may be a part, canonical isoform): as the sequence (P40337 whole entry, looked up, the tested form may be a part, canonical isoform) above
# T1 sequence (P48730 whole entry, looked up, the tested form may be a part, canonical isoform): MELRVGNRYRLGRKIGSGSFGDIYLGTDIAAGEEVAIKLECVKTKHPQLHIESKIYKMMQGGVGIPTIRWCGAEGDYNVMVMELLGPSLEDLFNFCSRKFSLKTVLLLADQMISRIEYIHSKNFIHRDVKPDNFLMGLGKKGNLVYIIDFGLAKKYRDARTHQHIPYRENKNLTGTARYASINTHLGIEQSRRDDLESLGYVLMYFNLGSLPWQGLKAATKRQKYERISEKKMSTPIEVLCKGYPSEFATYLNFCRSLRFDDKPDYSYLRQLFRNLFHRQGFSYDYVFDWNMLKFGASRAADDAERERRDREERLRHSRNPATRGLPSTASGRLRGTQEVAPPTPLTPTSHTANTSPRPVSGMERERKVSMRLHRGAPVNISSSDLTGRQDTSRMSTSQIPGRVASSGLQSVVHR
# T2 sequence (P40337 whole entry, looked up, canonical isoform): as the sequence (P40337 whole entry, looked up, the tested form may be a part, canonical isoform) above
# T2 sequence (P48729 whole entry, looked up, canonical isoform): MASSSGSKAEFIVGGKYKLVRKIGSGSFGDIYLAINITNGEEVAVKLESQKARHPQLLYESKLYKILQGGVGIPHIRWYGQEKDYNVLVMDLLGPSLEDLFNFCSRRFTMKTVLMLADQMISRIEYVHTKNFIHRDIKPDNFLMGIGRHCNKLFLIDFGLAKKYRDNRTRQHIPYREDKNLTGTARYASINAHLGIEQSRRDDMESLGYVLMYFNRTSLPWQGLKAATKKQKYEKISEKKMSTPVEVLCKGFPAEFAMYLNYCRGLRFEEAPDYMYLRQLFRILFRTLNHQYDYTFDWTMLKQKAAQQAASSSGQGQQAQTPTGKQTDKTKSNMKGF
# Sequence of Casein kinase I isoform delta (Homo sapiens) (P48730 whole entry, looked up, the tested form may be a part, canonical isoform): as the sequence (P48730 whole entry, looked up, the tested form may be a part, canonical isoform) above
smiles,measurement,setting,value
Cc1ncsc1-c1ccc(CNC(=O)[C@H]2C[C@H](O)CN2C(=O)[C@H](NC(=O)CCCCCCC(=O)N2CCC(F)(Cn3cnc(-c4ccc(F)cn4)c3-c3ccnc4[nH]ccc34)CC2)C(C)(C)C)cc1,fold change (FC),[1],1.2
same,Activity,[2],inactive
same,Activity,[3],Active
same,fold change (FC),[4],1.19
same,Activity,[5],Active
same,Activity,[6],Active; Compound Showed Milder Cytotoxic Effect
same,Emax,[7],> 50%
same,Activity,[8],Dose-dependent-effect
same,Activity,[9],100%
same,Activity,[10],inactive
same,Activity,[11],Active
same,fold change (FC),[12],0.49
same,Activity,[13],Active
same,Activity,[14],inactive
same,Activity,[15],Not active; Compound Showed Weak Degradation
same,Activity,[16],Not active; Compound Showed Weak Degradation
same,Activity,[17],Active
same,Activity,[18],100%
same,fold change (FC),[19],0.93
same,Activity,[20],Active
same,Activity,[21],inactive
same,Activity,[22],Dose-dependent-effect
same,Activity,[23],Active
same,Activity,[24],Active
same,Activity,[25],90%
same,Activity,[26],100%
same,Activity,[27],100%
same,fold change (FC),[28],0.33
same,Activity,[29],Not active; Compound Showed Weak Degradation
same,Emax,[30],75%
same,Activity,[31],Dose-dependent-effect
